Results: ChEMBL document CHEMBL1201862, “PubChem BioAssay data set” (2004)
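Growth conditions: 96-well plates. Treatment: test compound, 48 hours, 5 concentrations. Analysis: linear interpolation between bracketing concentrations; unreached endpoints set to highest concentration. Here, GI50 denotes the concentration required for 50% inhibition of growth.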 Calls of active or inactive are those of the source. No stated cut-off is given here; in the data, active = GI50 up to about 1.1 µM and inactive = higher.

How the values were obtained:
Assay in all cases: growth of human tumour cells (NCI), 48 h
A549 = test system: A549
BT-549 = test system: BT-549
CAKI-1 = test system: CAKI-1
CCRF-CEM = test system: CCRF-CEM
COLO 205 = test system: COLO 205
HL-60 = test system: HL-60
HOP-92 = test system: HOP-92
Hs-578T = test system: Hs-578T
K562 = test system: K562
NCI-H23 = test system: NCI-H23
OVCAR-3 = test system: OVCAR-3
OVCAR-5 = test system: OVCAR-5
OVCAR-8 = test system: OVCAR-8
RPMI-8226 = test system: RPMI-8226
RXF 393 = test system: RXF 393
SK-MEL-2 = test system: SK-MEL-2
UACC-257 = test system: UACC-257
UO-31 = test system: UO-31
NCI-H522 = test system: NCI-H522
SNB-75 = test system: SNB-75

SMILES	GI50 (A549)	GI50 (BT-549)	GI50 (CAKI-1)	GI50 (CCRF-CEM)	GI50 (COLO 205)	GI50 (HL-60)	GI50 (HOP-92)	GI50 (Hs-578T)	GI50 (K562)	GI50 (NCI-H23)	GI50 (OVCAR-3)	GI50 (OVCAR-5)	GI50 (OVCAR-8)	GI50 (RPMI-8226)	GI50 (RXF 393)	GI50 (SK-MEL-2)	GI50 (UACC-257)	GI50 (UO-31)	GI50 (NCI-H522)	GI50 (SNB-75)
CCOC(=O)c1c(C)[n+]([O-])c2cc(Cl)c(Cl)cc2[n+]1[O-]	14.6 µM (inactive)	19.8 µM (inactive)	18 µM (inactive)	18.5 µM (inactive)	19.7 µM (inactive)	< 0.01 µM (active)	3.54 µM (inactive)	24.1 µM (inactive)	31.4 µM (inactive)	10.7 µM (inactive)	15.6 µM (inactive)	43.6 µM (inactive)	19.7 µM (inactive)	14.4 µM (inactive)	17.2 µM (inactive)	23.3 µM (inactive)	16.9 µM (inactive)	24.5 µM (inactive)		
c1ccc2c(c1)-c1nc3ccccc3cc1C2N1CCOCC1 (stereo unspecified)	> 100 µM (inactive)	> 100 µM (inactive)	> 100 µM (inactive)	28.4 µM (inactive)	> 100 µM (inactive)	34.5 µM (inactive)		46.6 µM (inactive)	> 100 µM (inactive)	> 100 µM (inactive)	> 100 µM (inactive)	> 100 µM (inactive)	93.5 µM (inactive)	72.1 µM (inactive)	> 100 µM (inactive)	> 100 µM (inactive)	> 100 µM (inactive)	1.37 µM (inactive)	43.5 µM (inactive)	> 100 µM (inactive)
CCOC(=O)C1=c2[nH]c3cccc4cccc(c43)n2C=C(C(C)=O)C1CC(C)=O (stereo unspecified)	46.2 µM (inactive)	> 100 µM (inactive)	56.6 µM (inactive)	19.9 µM (inactive)	35.1 µM (inactive)	12.3 µM (inactive)	36.6 µM (inactive)		> 100 µM (inactive)	69.7 µM (inactive)	> 100 µM (inactive)	> 100 µM (inactive)	46.2 µM (inactive)	> 100 µM (inactive)	56.1 µM (inactive)	> 100 µM (inactive)	> 100 µM (inactive)	37.4 µM (inactive)		> 100 µM (inactive)
CC1CC[C@@H](C(C)C)[C@H](Oc2nnc(C3OC(CO)C(O)C3O)o2)C1 (stereo partly specified)	> 100 µM (inactive)	> 100 µM (inactive)	> 100 µM (inactive)	> 100 µM (inactive)	> 100 µM (inactive)	> 100 µM (inactive)	> 100 µM (inactive)		> 100 µM (inactive)	> 100 µM (inactive)	> 100 µM (inactive)	> 100 µM (inactive)	> 100 µM (inactive)	> 100 µM (inactive)	> 100 µM (inactive)	> 100 µM (inactive)	> 100 µM (inactive)	> 100 µM (inactive)		> 100 µM (inactive)
COC(=O)c1sc2ncc3c(c2c1N)CCCCCC3	> 100 µM (inactive)	> 100 µM (inactive)	> 100 µM (inactive)	> 100 µM (inactive)	> 100 µM (inactive)		> 100 µM (inactive)		> 100 µM (inactive)	> 100 µM (inactive)	> 100 µM (inactive)	> 100 µM (inactive)	> 100 µM (inactive)	> 100 µM (inactive)	> 100 µM (inactive)	> 100 µM (inactive)	> 100 µM (inactive)	> 100 µM (inactive)	> 100 µM (inactive)	97.3 µM (inactive)
O=C(/C=C1\Nc2ccccc2N\C1=C\C(=O)c1ccc(Cl)cc1)c1ccccc1	53 µM (inactive)	34.5 µM (inactive)	27.8 µM (inactive)	10.4 µM (inactive)	> 100 µM (inactive)				37.5 µM (inactive)	75 µM (inactive)		64 µM (inactive)	23.9 µM (inactive)	39.4 µM (inactive)	70.1 µM (inactive)	> 100 µM (inactive)	53.8 µM (inactive)	21.4 µM (inactive)	> 100 µM (inactive)	21.3 µM (inactive)
Cc1cnc(-c2c[nH]c3ccccc23)nc1-c1c[nH]c2ccccc12	3.64 µM (inactive)	19 µM (inactive)	5.4 µM (inactive)	1.52 µM (inactive)	4.58 µM (inactive)	5 µM (inactive)	2.03 µM (inactive)	17.9 µM (inactive)	3.3 µM (inactive)		8.13 µM (inactive)	5.5 µM (inactive)	6.08 µM (inactive)	3.9 µM (inactive)		6.44 µM (inactive)	6.82 µM (inactive)	6.97 µM (inactive)		2.39 µM (inactive)
CSC(SC)=C(C#N)C(=O)Nc1ccc(Cl)cc1	31.3 µM (inactive)	46.7 µM (inactive)	22 µM (inactive)	20.6 µM (inactive)	18.3 µM (inactive)	23.9 µM (inactive)		> 100 µM (inactive)	25.9 µM (inactive)	30.2 µM (inactive)	> 100 µM (inactive)	> 100 µM (inactive)	52.8 µM (inactive)	26.4 µM (inactive)	19.8 µM (inactive)	> 100 µM (inactive)	> 100 µM (inactive)	22 µM (inactive)		95.3 µM (inactive)
CN(/N=C/c1ccc(C(=O)O)cc1)C1=NCCCCN1	> 100 µM (inactive)	> 100 µM (inactive)	> 100 µM (inactive)	> 100 µM (inactive)	> 100 µM (inactive)	> 100 µM (inactive)			> 100 µM (inactive)	> 100 µM (inactive)	> 100 µM (inactive)	> 100 µM (inactive)	> 100 µM (inactive)	> 100 µM (inactive)			> 100 µM (inactive)	> 100 µM (inactive)	> 100 µM (inactive)	98.9 µM (inactive)
Fc1ccc(Oc2nc3ccc(C(F)(F)F)cc3nc2-c2ccccc2)cc1	36.6 µM (inactive)	> 100 µM (inactive)	27.9 µM (inactive)	> 10 µM (inactive)	> 100 µM (inactive)	87.3 µM (inactive)		28.2 µM (inactive)	> 10 µM (inactive)	77.3 µM (inactive)	> 100 µM (inactive)	> 100 µM (inactive)	> 100 µM (inactive)		67.5 µM (inactive)	60 µM (inactive)	47.2 µM (inactive)	44.3 µM (inactive)	> 100 µM (inactive)	27.9 µM (inactive)
O=P(c1ccccc1)(c1ccccc1)c1ccc2c(c1)OCCOCCOCCOCCO2	> 100 µM (inactive)	> 100 µM (inactive)	> 100 µM (inactive)	> 100 µM (inactive)	> 100 µM (inactive)	> 100 µM (inactive)		> 100 µM (inactive)	> 100 µM (inactive)	> 100 µM (inactive)			> 100 µM (inactive)	> 100 µM (inactive)				> 100 µM (inactive)	> 100 µM (inactive)	> 100 µM (inactive)
O=C1OC2C=CCC1C2 (stereo unspecified)	> 100 µM (inactive)	> 100 µM (inactive)	> 100 µM (inactive)	> 100 µM (inactive)	> 100 µM (inactive)	> 100 µM (inactive)		> 100 µM (inactive)	> 100 µM (inactive)	> 100 µM (inactive)	> 100 µM (inactive)	> 100 µM (inactive)	> 100 µM (inactive)	> 100 µM (inactive)		> 100 µM (inactive)	> 100 µM (inactive)	> 100 µM (inactive)	> 100 µM (inactive)	> 100 µM (inactive)
COC(=O)C1Cc2ccc3c(c2C1=O)CCCC3 (stereo unspecified)	> 100 µM (inactive)	> 100 µM (inactive)	> 100 µM (inactive)	39.2 µM (inactive)	> 100 µM (inactive)	> 100 µM (inactive)		> 100 µM (inactive)	22.2 µM (inactive)	74.5 µM (inactive)	80.7 µM (inactive)	> 100 µM (inactive)	92.3 µM (inactive)	24.7 µM (inactive)		> 100 µM (inactive)	> 100 µM (inactive)	61.4 µM (inactive)	> 100 µM (inactive)	89.7 µM (inactive)
C#CC(C)(C)OC(=O)C(=[N+]=[N-])C(C)=O	> 10 µM (inactive)	> 10 µM (inactive)		> 10 µM (inactive)		> 10 µM (inactive)	> 10 µM (inactive)	> 10 µM (inactive)	> 10 µM (inactive)	> 10 µM (inactive)	> 10 µM (inactive)	> 10 µM (inactive)	> 10 µM (inactive)	> 10 µM (inactive)	> 10 µM (inactive)	> 10 µM (inactive)	> 10 µM (inactive)	> 10 µM (inactive)		> 10 µM (inactive)
COC(=O)OC[C@H]1O[C@@H](n2cc(C)c(=O)[nH]c2=O)CC1OC(=O)OC (stereo partly specified)	> 100 µM (inactive)	> 100 µM (inactive)		> 100 µM (inactive)	> 100 µM (inactive)	> 100 µM (inactive)		> 100 µM (inactive)	> 100 µM (inactive)	> 100 µM (inactive)	> 100 µM (inactive)	> 100 µM (inactive)	> 100 µM (inactive)	> 100 µM (inactive)	> 100 µM (inactive)	> 100 µM (inactive)		> 100 µM (inactive)	> 100 µM (inactive)	95.3 µM (inactive)
O=C1CCCCC/C1=C\c1cccc(F)c1	> 100 µM (inactive)	51.9 µM (inactive)	65.9 µM (inactive)	24.3 µM (inactive)	> 100 µM (inactive)	17.1 µM (inactive)			49.5 µM (inactive)		> 100 µM (inactive)	> 100 µM (inactive)	> 100 µM (inactive)	19.8 µM (inactive)	> 100 µM (inactive)	> 100 µM (inactive)	59 µM (inactive)	57.7 µM (inactive)		> 100 µM (inactive)
